Test results: ChEMBL document CHEMBL1212758 (Antimicrob Agents Chemother, 2010)

Columns and labels:
[1] = system: Macacine alphaherpesvirus 1; assay: Antiviral activity against Macacine herpesvirus 1 isolate MR5 infected in african green monkey Vero cells by plaque reduction assay; type: functional, organism-based; conditions: Macacine alphaherpesvirus 1, isolate MR5, Vero
[2] = system: Macacine alphaherpesvirus 1; assay: Antiviral activity against Macacine herpesvirus 1 isolate MR4 infected in african green monkey Vero cells by plaque reduction assay; type: functional, organism-based; conditions: Macacine alphaherpesvirus 1, isolate MR4, Vero
[3] = system: Macacine alphaherpesvirus 1; assay: Antiviral activity against thymidine kinase deficient Macacine herpesvirus 1 isolate E2490 infected in african green monkey Vero cells by plaque reduction assay; type: functional, organism-based; conditions: Macacine alphaherpesvirus 1, isolate E2490, Vero
[4] = system: Macacine alphaherpesvirus 1; assay: Antiviral activity against Macacine herpesvirus 1 isolate A2 infected in african green monkey Vero cells by plaque reduction assay; type: functional, organism-based; conditions: Macacine alphaherpesvirus 1, isolate A2, Vero
[5] = system: Macacine alphaherpesvirus 1; assay: Antiviral activity against Macacine herpesvirus 1 isolate MJ1 infected in african green monkey Vero cells by plaque reduction assay; type: functional, organism-based; conditions: Macacine alphaherpesvirus 1, isolate MJ1, Vero
[6] = system: Macacine alphaherpesvirus 1; assay: Antiviral activity against Macacine herpesvirus 1 isolate MC2 infected in african green monkey Vero cells by plaque reduction assay; type: functional, organism-based; conditions: Macacine alphaherpesvirus 1, isolate MC2, Vero
[7] = system: Macacine alphaherpesvirus 1; assay: Antiviral activity against Macacine herpesvirus 1 isolate MR11 infected in african green monkey Vero cells by plaque reduction assay; type: functional, organism-based; conditions: Macacine alphaherpesvirus 1, isolate MR11, Vero
[8] = system: Macacine alphaherpesvirus 1; assay: Antiviral activity against Macacine herpesvirus 1 isolate MJ2 infected in african green monkey Vero cells by plaque reduction assay; type: functional, organism-based; conditions: Macacine alphaherpesvirus 1, isolate MJ2, Vero
[9] = system: Macacine alphaherpesvirus 1; assay: Antiviral activity against Macacine herpesvirus 1 isolate MJ3 infected in african green monkey Vero cells by plaque reduction assay; type: functional, organism-based; conditions: Macacine alphaherpesvirus 1, isolate MJ3, Vero
[10] = system: Macacine alphaherpesvirus 1; assay: Antiviral activity against Macacine herpesvirus 1 isolate A3 infected in african green monkey Vero cells by plaque reduction assay; type: functional, organism-based; conditions: Macacine alphaherpesvirus 1, isolate A3, Vero
[11] = system: Macacine alphaherpesvirus 1; assay: Antiviral activity against Macacine herpesvirus 1 isolate MR3 infected in african green monkey Vero cells by plaque reduction assay; type: functional, organism-based; conditions: Macacine alphaherpesvirus 1, isolate MR3, Vero
[12] = system: Macacine alphaherpesvirus 1; assay: Antiviral activity against Macacine herpesvirus 1 isolate E2490 infected in african green monkey Vero cells by plaque reduction assay; type: functional, organism-based; conditions: Macacine alphaherpesvirus 1, isolate E2490, Vero
[13] = system: Macacine alphaherpesvirus 1; assay: Antiviral activity against Macacine herpesvirus 1 isolate MR6 infected in african green monkey Vero cells by plaque reduction assay; type: functional, organism-based; conditions: Macacine alphaherpesvirus 1, isolate MR6, Vero
Human alphaherpesvirus 2 = assay: Antiviral activity against HSV2 infected in african green monkey Vero cells by plaque reduction assay; type: functional, organism-based; conditions: Human alphaherpesvirus 2, Vero
[14] = system: Macacine alphaherpesvirus 1; assay: Antiviral activity against Macacine herpesvirus 1 isolate MR1 infected in african green monkey Vero cells by plaque reduction assay; type: functional, organism-based; conditions: Macacine alphaherpesvirus 1, isolate MR1, Vero
[15] = system: Macacine alphaherpesvirus 1; assay: Antiviral activity against Macacine herpesvirus 1 isolate A1 infected in african green monkey Vero cells by plaque reduction assay; type: functional, organism-based; conditions: Macacine alphaherpesvirus 1, isolate A1, Vero
[16] = system: Macacine alphaherpesvirus 1; assay: Antiviral activity against Macacine herpesvirus 1 isolate MP1 infected in african green monkey Vero cells by plaque reduction assay; type: functional, organism-based; conditions: Macacine alphaherpesvirus 1, isolate MP1, Vero
[17] = system: Macacine alphaherpesvirus 1; assay: Antiviral activity against Macacine herpesvirus 1 isolate MR9 infected in african green monkey Vero cells by plaque reduction assay; type: functional, organism-based; conditions: Macacine alphaherpesvirus 1, isolate MR9, Vero
[18] = system: Macacine alphaherpesvirus 1; assay: Antiviral activity against Macacine herpesvirus 1 isolate MR7 infected in african green monkey Vero cells by plaque reduction assay; type: functional, organism-based; conditions: Macacine alphaherpesvirus 1, isolate MR7, Vero
[19] = system: Macacine alphaherpesvirus 1; assay: Antiviral activity against Macacine herpesvirus 1 isolate A6 infected in african green monkey Vero cells by plaque reduction assay; type: functional, organism-based; conditions: Macacine alphaherpesvirus 1, isolate A6, Vero
[20] = system: Macacine alphaherpesvirus 1; assay: Antiviral activity against Macacine herpesvirus 1 isolate MR8 infected in african green monkey Vero cells by plaque reduction assay; type: functional, organism-based; conditions: Macacine alphaherpesvirus 1, isolate MR8, Vero
[21] = system: Macacine alphaherpesvirus 1; assay: Antiviral activity against Macacine herpesvirus 1 isolate MR2 infected in african green monkey Vero cells by plaque reduction assay; type: functional, organism-based; conditions: Macacine alphaherpesvirus 1, isolate MR2, Vero
Human alphaherpesvirus 1 = assay: Antiviral activity against HSV1 infected in african green monkey Vero cells by plaque reduction assay; type: functional, organism-based; conditions: Human alphaherpesvirus 1, Vero
[22] = system: Macacine alphaherpesvirus 1; assay: Antiviral activity against Macacine herpesvirus 1 isolate A5 infected in african green monkey Vero cells by plaque reduction assay; type: functional, organism-based; conditions: Macacine alphaherpesvirus 1, isolate A5, Vero
[23] = system: Macacine alphaherpesvirus 1; assay: Antiviral activity against Macacine herpesvirus 1 isolate MC1 infected in african green monkey Vero cells by plaque reduction assay; type: functional, organism-based; conditions: Macacine alphaherpesvirus 1, isolate MC1, Vero
[24] = system: Macacine alphaherpesvirus 1; assay: Antiviral activity against Macacine herpesvirus 1 isolate A4 infected in african green monkey Vero cells by plaque reduction assay; type: functional, organism-based; conditions: Macacine alphaherpesvirus 1, isolate A4, Vero
[25] = system: Macacine alphaherpesvirus 1; assay: Antiviral activity against Macacine herpesvirus 1 isolate MR10 infected in african green monkey Vero cells by plaque reduction assay; type: functional, organism-based; conditions: Macacine alphaherpesvirus 1, isolate MR10, Vero
[26] = system: Macacine alphaherpesvirus 1; assay: Antiviral activity against Macacine herpesvirus 1 infected in rabbits assessed as survival after 5 months; type: functional

Q: For Nc1ncnc2c1ncn2[C@@H]1O[C@H](CO)[C@@H](O)[C@@H]1O [VIDARABINE], which EC50 [1] is on record?
A: 26.5 µM

Q: What about the EC50 [2] of the same molecule?
A: 26.5 µM

Q: What about the EC50 [3] of the same molecule?
A: 37.8 µM

Q: What about the EC50 [4] of the same molecule?
A: 26.5 µM

Q: And the EC50 [5]?
A: 26.5 µM

Q: What about the EC50 [6] of the same molecule?
A: 26.5 µM

Q: And the EC50 [7]?
A: 26.5 µM

Q: What about the EC50 [8] of the same molecule?
A: 26.5 µM

Q: And the EC50 [9]?
A: 26.5 µM

Q: And the EC50 [10]?
A: 26.5 µM

Q: And the EC50 [11]?
A: 26.5 µM

Q: What about the EC50 [12] of the same molecule?
A: 26.5 µM

Q: What about the EC50 [13] of the same molecule?
A: 26.5 µM

Q: And the EC50 (Human alphaherpesvirus 2)?
A: 26.5 µM

Q: And the EC50 [14]?
A: 26.5 µM

Q: And the EC50 [15]?
A: 26.5 µM

Q: And the EC50 [16]?
A: 26.5 µM

Q: What about the EC50 [17] of the same molecule?
A: 26.5 µM

Q: What about the EC50 [18] of the same molecule?
A: 26.5 µM

Q: And the EC50 [19]?
A: 26.5 µM

Q: And the EC50 [20]?
A: 26.5 µM

Q: What about the EC50 [21] of the same molecule?
A: 26.5 µM

Q: What about the EC50 (Human alphaherpesvirus 1) of the same molecule?
A: 26.5 µM

Q: What about the EC50 [22] of the same molecule?
A: 26.5 µM

Q: And the EC50 [23]?
A: 26.5 µM

Q: And the EC50 [24]?
A: 26.5 µM

Q: And the EC50 [25]?
A: 26.5 µM

Q: How did the EC50 [1] turn out when Nc1nc2c(ncn2COCCO)c(=O)[nH]1 [ACYCLOVIR] was run?
A: 19.3 µM

Q: And the EC50 [2]?
A: 19.3 µM

Q: What about the EC50 [4] of the same molecule?
A: 19.3 µM

Q: And the EC50 [5]?
A: 19.3 µM

Q: What about the EC50 [6] of the same molecule?
A: 19.3 µM

Q: What about the EC50 [7] of the same molecule?
A: 19.3 µM

Q: And the EC50 [8]?
A: 19.3 µM

Q: And the EC50 [9]?
A: 19.3 µM

Q: And the EC50 [10]?
A: 19.3 µM

Q: What about the Activity [26] of the same molecule?
A: 33%

Q: And the EC50 [11]?
A: 19.3 µM

Q: And the EC50 [12]?
A: 19.3 µM

Q: What about the EC50 [13] of the same molecule?
A: 19.3 µM

Q: What about the EC50 (Human alphaherpesvirus 2) of the same molecule?
A: 19.3 µM

Q: What about the EC50 [14] of the same molecule?
A: 19.3 µM

Q: And the EC50 [15]?
A: 19.3 µM

Q: What about the EC50 [16] of the same molecule?
A: 19.3 µM

Q: What about the EC50 [17] of the same molecule?
A: 19.3 µM

Q: What about the EC50 [18] of the same molecule?
A: 19.3 µM

Q: What about the EC50 [19] of the same molecule?
A: 19.3 µM

Q: And the EC50 [20]?
A: 19.3 µM

Q: What about the EC50 [21] of the same molecule?
A: 19.3 µM

Q: And the EC50 (Human alphaherpesvirus 1)?
A: 19.3 µM

Q: What about the EC50 [22] of the same molecule?
A: 19.3 µM

Q: And the EC50 [23]?
A: 19.3 µM

Q: What about the EC50 [24] of the same molecule?
A: 19.3 µM

Q: And the EC50 [25]?
A: 19.3 µM
